Reference: a melting point compilation (Tetko et al.)

First: OCc1cc2ccccc2nc1Cl
Second: ClCc1csc(-c2ccccc2Cl)n1
The melting point of the first is higher: 163 to 165 °C for the first, 55 to 57 °C for the second.

Compared with `N#Cc1cccc(N2C(=O)CCC2=O)c1`, `N#Cc1cccc(/C=C/C(=O)O)c1` is higher in melting point: 134 to 136 °C for the first, 246 to 248 °C for the second.

First: N#CCOc1ccc(CO)cc1
Second: C#CCOc1ccc(C(=O)O)cc1
The melting point of the first is lower: 98 to 100 °C for the first, 216 to 218 °C for the second.

Compared with `COc1cc(C(=O)O)ccc1OCc1ccc(Br)cc1`, `COc1cc(C=O)ccc1OCc1ccc(F)cc1` is lower in melting point: 224 to 226 °C for the first, 77 to 81 °C for the second.

First: Cc1n[nH]c(C)c1S(=O)(=O)Cl
Second: Cc1cc(S(N)(=O)=O)cc([N+](=O)[O-])c1C
The melting point of the first is lower: 60 to 65 °C for the first, 180 to 182 °C for the second.

First: O=C(NC1CCN(Cc2ccccc2)CC1)c1cccc(F)c1
Second: O=C(O)c1cccc(CN2C(=O)c3ccccc3C2=O)c1
The melting point of the first is lower: 143 to 145 °C for the first, 202 to 212 °C for the second.

Compared with `O=C(O)Cn1cnc2ccccc2c1=O`, `O=C(O)Cn1cc(Br)ccc1=O` is lower in melting point: 241 to 243 °C for the first, 239 to 241 °C for the second.

First: CSc1ccc(Cl)c(C(N)=O)c1
Second: CC(=O)c1ccc(N)cc1Cl
The melting point of the first is higher: 144 to 146 °C for the first, 58 to 60 °C for the second.

First: COc1ccccc1NC(=O)CCCCC(=O)O
Second: CCC(=O)Nc1cccc(C(=O)O)c1
The melting point of the first is lower: 82 to 84 °C for the first, 229 to 231 °C for the second.

First: O=Cc1cc2c(cc1[N+](=O)[O-])OCCO2
Second: Cc1cccc([N+](=O)[O-])c1F
The melting point of the first is higher: 169 to 171 °C for the first, 19 to 21 °C for the second.

Compared with `Cn1nc(-c2ccccc2)c(C=O)c1Cl`, `Cc1cc(C)c2c(-c3ccccc3)nc(S)n2n1` is higher in melting point: 61 to 63 °C for the first, 328 to 330 °C for the second.

Compared with `CC(C)(C)c1cc(N)n(CCO)n1`, `CC(C)(C)C(N)=NO` is lower in melting point: 102 to 104 °C for the first, 93 to 95 °C for the second.

Compared with `CC(C)Nc1ccc(Br)cc1[N+](=O)[O-]`, `COC(=O)c1cc2cccc(Br)c2o1` is lower in melting point: 97 to 99 °C for the first, 76 to 78 °C for the second.

Compared with `Fc1ccc(-c2cc3ncnc(Cl)c3s2)cc1`, `O=C(O)c1ccc(-c2ccc(F)cc2)o1` is lower in melting point: 202 to 206 °C for the first, 193 to 195 °C for the second.

First: Nc1ccc(N2CCNC(=O)C2)nc1
Second: N#Cc1ccccc1Oc1ccc(N)cn1
The melting point of the first is higher: 136 to 138 °C for the first, 92 to 94 °C for the second.

Compared with `O=C(O)c1ccc(Cl)c(S(=O)(=O)N2CCOCC2)c1`, `CC1CN(S(=O)(=O)c2cccc(C(=O)O)c2)CC(C)O1` (configuration not stated) is higher in melting point: 176 to 178 °C for the first, 188 to 190 °C for the second.

Compared with `O=c1ccc(S(=O)(=O)c2ccccc2)n[nH]1`, `CC(=O)c1ccccc1NS(=O)(=O)c1ccc(C)cc1` is lower in melting point: 182 to 184 °C for the first, 148 to 150 °C for the second.

First: NNc1c(Cl)cc(C(=O)O)cc1Cl
Second: O=C(O)c1cc2cccc(Cl)c2o1
The melting point of the first is lower: 207 to 209 °C for the first, 243 to 245 °C for the second.

Compared with `O=C(O)c1oc2ccccc2c1CSc1ccc(Cl)cc1`, `Nc1nc2cc(Cc3ccccc3)ccc2o1` is lower in melting point: 158 to 160 °C for the first, 151 to 153 °C for the second.

First: COc1ccc(C(=O)c2ccc(F)cc2)cc1
Second: COc1ccc(CCNC(=O)c2ccccc2N)cc1
The melting point of the first is higher: 90 to 92 °C for the first, 80 to 82 °C for the second.

Compared with `Cn1cnnc1-c1ccc(N)nc1`, `CC(=O)c1ccc(-n2cnnn2)cc1` is lower in melting point: 249 to 251 °C for the first, 174 to 176 °C for the second.

First: O=C(c1cccnc1)C1CCOCC1
Second: Cc1ccccc1C1(C(=O)O)CCOCC1
The melting point of the first is lower: 43 to 45 °C for the first, 170 to 172 °C for the second.

First: Cc1cnc(N)nc1
Second: CC(C)c1ncncc1C(=O)O
The melting point of the first is higher: 194 to 196 °C for the first, 134 to 136 °C for the second.

First: O=C1COc2c(cccc2C(=O)O)N1
Second: Cc1cc(C(=O)O)c(C)n1-c1cccc(Cl)c1
The melting point of the first is higher: 311 to 313 °C for the first, 160 to 162 °C for the second.

Compared with `CC(C)OC(=O)c1ccnc(O)c1`, `CC(C)n1cnc2cc(C(=O)O)ccc21` is higher in melting point: 145 to 147 °C for the first, 216 to 218 °C for the second.

Compared with `Cn1c(CC(=O)NN)nc2ccccc21`, `O=C(O)Cc1cc(=O)n(-c2ccccc2)[nH]1` is lower in melting point: 206 to 208 °C for the first, 98 to 102 °C for the second.

First: O=C1NCCCC1Br (configuration not stated)
Second: NS(=O)(=O)CC1CCCN1 (configuration not stated)
The melting point of the first is lower: 49 to 51 °C for the first, 72 to 74 °C for the second.

First: O=C(O)c1cnn(-c2ccc(C(F)(F)F)cn2)c1C(F)(F)F
Second: O=C(O)c1ccc(Oc2cccc(Br)c2)nc1
The melting point of the first is higher: 162 to 164 °C for the first, 154 to 156 °C for the second.

`COc1cc(C(=O)O)ccc1OCc1csc(C)n1` and `COC(=O)c1cc2c(C=O)ccc(OC)c2o1` cannot be ordered by melting point: 172 to 174 °C for the first, 171 to 173 °C for the second.

First: O=Cc1c(Cl)cccc1N1CCCC1
Second: Nc1ccccc1C(=O)N1CCCC1
The melting point of the first is lower: 69 to 71 °C for the first, 85 to 89 °C for the second.

First: Nc1cc(-c2ccc(Cl)cc2)no1
Second: Nc1nc(-c2ccc3c(c2)COC3)cs1
The melting point of the first is lower: 164 to 166 °C for the first, 204 to 206 °C for the second.

Compared with `CC1CNC(=Nc2cccc3cccnc23)S1` (configuration not stated), `O=C(CCl)Nc1cccc(CSc2ccccn2)c1` is lower in melting point: 92 to 94 °C for the first, 90 to 92 °C for the second.

First: CC(C)(CCCc1ccccc1)C(=O)O
Second: O=C(CCl)NCC(=O)c1ccccc1
The melting point of the first is lower: 48 to 50 °C for the first, 124 to 126 °C for the second.

Compared with `Nc1cc(C2CCCC2)nn1-c1ccccc1`, `O=C(O)COc1ccc(Cl)cc1C1CCCCC1` is higher in melting point: 80 to 82 °C for the first, 167 to 169 °C for the second.

Compared with `CN(C)S(=O)(=O)c1ccc(N)c(N)c1`, `CN(C)Cc1ccc(C(=O)NN)o1` is lower in melting point: 193 to 195 °C for the first, 116 to 118 °C for the second.

Compared with `CN1CCN(CCNCc2ccc(Br)cc2F)CC1`, `O=C(O)c1cccn2cc(CN3CCCC3)nc12` is higher in melting point: 45 to 47 °C for the first, 264 to 266 °C for the second.

First: CC(C)(C)OC(=O)N1CCC(OC(=O)c2ccc(N)cc2)CC1
Second: Cc1ccc(C(=O)C(=O)O)cc1
The melting point of the first is lower: 147 to 149 °C for the first, 176 to 178 °C for the second.

Compared with `CCOC(=O)c1cnc2c(OC)cc(OC)cc2c1Cl`, `COc1cc(C=O)cc(OC)c1OC(F)F` is lower in melting point: 148 to 150 °C for the first, 115 to 117 °C for the second.

First: CN(C)CCCNC(=O)c1cccnc1Cl
Second: CN(C)c1ncc(Br)cc1C(=O)O
The melting point of the first is lower: 97 to 101 °C for the first, 143 to 145 °C for the second.

First: Cc1sc2nc(-c3cccnc3)nc(Cl)c2c1-c1ccccc1
Second: COc1ccc(-c2nc(C)c(C(C)=O)s2)cc1
The melting point of the first is higher: 144 to 146 °C for the first, 92 to 94 °C for the second.

First: NC(=O)c1ccc(CSc2ncccc2C(=O)O)cc1
Second: O=C(O)c1ccc(COc2ccc(Br)cc2)o1
The melting point of the first is higher: 291 to 293 °C for the first, 194 to 196 °C for the second.

First: N#Cc1cc(F)c(C(=O)O)c(F)c1
Second: Cc1cc(OC(F)F)c(C(=O)O)s1
The melting point of the first is higher: 189 to 191 °C for the first, 155 to 157 °C for the second.

First: CC(=O)Nc1ccc(C(=O)O)nc1
Second: O=C(O)CNS(=O)(=O)c1ccc(F)cc1
The melting point of the first is higher: 204 to 206 °C for the first, 146 to 148 °C for the second.

First: CCOc1ccccc1-n1nnnc1SCC(=O)O
Second: CCCCc1ccc(-n2nnnc2S)cc1
The melting point of the first is higher: 145 to 147 °C for the first, 88 to 92 °C for the second.

First: COc1c(Cl)ccnc1O
Second: SCc1c(Cl)cccc1Cl
The melting point of the first is higher: 169 to 171 °C for the first, 44 to 46 °C for the second.

First: C=CCn1c(C)cc(C(=O)CCl)c1C
Second: O=Cc1ccc(OCCn2cc(C(=O)O)nn2)c(Cl)c1
The melting point of the first is lower: 36 to 40 °C for the first, 189 to 191 °C for the second.

First: Cc1ccccc1NCC(=O)N1CCCCC1
Second: O=C(O)C1(c2cccc(F)c2)CCCCC1
The melting point of the first is lower: 78 to 80 °C for the first, 135 to 137 °C for the second.

Compared with `COc1ccc(C2C(C(N)=O)CCC(=O)N2C)cc1` (configuration not stated), `CC(O)c1ccc(I)cc1` (configuration not stated) is lower in melting point: 220 to 222 °C for the first, 43 to 45 °C for the second.

First: O=C(O)C1(C(=O)NC2CC2)CCC1
Second: FC(F)(F)C1(NCc2ccccc2)CCC2(CC1)OCCO2
The melting point of the first is higher: 139 to 141 °C for the first, 83 to 85 °C for the second.

First: COCCCNc1c(N)n(CC(C)C)c(=O)[nH]c1=O
Second: CCOC(=O)/C(C#N)=C\Nc1ccc(Cl)cc1
The melting point of the first is higher: 179 to 181 °C for the first, 141 to 143 °C for the second.

Compared with `O=C1CCc2c(Br)cccc21`, `ClCc1nc(-c2ccco2)no1` is lower in melting point: 95 to 99 °C for the first, 82 to 84 °C for the second.
